{"source": "patent US6946277B2", "about": "“Method for enhancing cellobiase activity of termitomyces clypeatus using a glycosylation inhibitor” (Council of Scientific and Industrial Research, priority 2001, dated 2005)", "key": {"Termitomyces clypeatus [1]": {"tested_on": "Termitomyces clypeatus", "assay": "Cellobiase activity of culture filtrate of Termitomyces clypeatus grown with glycosylation inhibitors (p-nitro phenyl β-D-glucoside substrate)", "format": "cell-based", "settings": "for Maximum cellobiase activity: Termitomyces clypeatus in presence of 2-deoxyglucose", "experimental": "(§1) The fungus is maintained in agar slants containing (w/w) glucose 5%, potato extract 10%, malt extract 5%, KH2PO4 0.087%, MgSO4, 7H2O 0.05%. Cultivation of the fungus is carried out between temperatures 20-37° C., preferably at 28-30° C. and at pH between 3-8, preferably at 4-6, under aerobic condition in shake flask in liquid medium on a rotary shaker (200-300 strokes per minute). Among the assimilable carbon sources (cellobiose, mannose, fructose, xylose, arabinose, starch, dextrin, cellulose, cotton, xylan and agrowastes like baggasse powder, rice-straw powder, wheat bran, corn cob powder, corn powder; in presence of TCA cycle acids like succinate, fumarate, maleate or amino acids like aspartate, glutamate, serine, histidine and alanine or glucose analogues like D-glucosamine) D-cellobiose with succinate served as one of the best carbon sources in the concentration range of 0.5-2%(w/v). Among the assimilable nitrogen sources (ammonium chloride, ammonium nitrate, ammonium di hydrogen phosphate, potassium nitrate and organic nitrogen sources such as malt extract, yeast extract, potato extract, soya-peptone and bactopeptone) ammonium di hydrogen phosphate was used. Among the glycosylation inhibitors (Tunicamycin, deoxynojirimycin, 2-deoxy-D-glucose and D-glucono-lactone) 2-deoxy glucose was preferred (Table 1). Detergents used were Tween 20, Tween-80, or Tween-100. Initial pH of the medium may be maintained at 3-7, preferably at 4.5. Inoculum is prepared in the medium in polypropylene conical flask with sterile glass balls (1-1.5 cm in diameter) 3-4 numbers in 250-ml flask. The fine mycelia grown in liquid medium after 2-4 days of growth were added to the fermentation medium at the ratio of 1:10 (v/v). Optimum production of enzyme took place after 3 days of inoculation, between 4-6th days. The culture filtrate is freed from mycelia by any known method of filtration. Cellobiase activity of the culture medium was assayed using p-nitro phenyl β-D-glucoside as substrate. Reference may be made to Khowala. S. And Sengupta. S. (1992) Enzyme and microbial Technology, volume 14, pages144-149. One unit of activity was taken as the amount of enzyme, which could liberate one micromole of p-nitro phenol from p-nitro phenyl β-D-glucoside in the reaction mixture incubated at 50° C. for 30 minutes (Table 1 and 2). Endo-glucanase and cellobiohydrolase activities were measured by dinitrosalicylic acid reagent using carboxy methylcellulose (Sigma chemical co.) and crystalline cellulose (Sigma chemical co.) respectively as substrate (Table 2). Reference may be made to Sumner J. B. and Sumner G. (1949) in Laboratory Experiments in Chemistry, Academic press, New York, page 38. One unit of enzyme was considered as the amount of enzyme that could liberate one micromole of glucose equivalent per minute in buffer at pH 5.0 at 50° C.\n[…] The 250 ml conical flask containing 50 ml of medium were autoclaved for 20 minutes at 15 pounds per square inch pressure, where separately autoclaved ammonium di hydrogen orthophosphate at the concentration of 2.4% w/w was added to the medium after sterilization. The medium was cooled and was inoculated at the rate of 10% mycelia (blended) of the fungus developed earlier in flasks with glass marbles. The culture was grown in the medium for 4 days at temperatures 28°-32° C. on a rotary-shaker. The culture filtrate was freed from mycelia and the clear supernatant was used as a source of enzymes. Cellobiase activity was 90 units per ml, endo-glucanase was 4.5 units per ml, and cellobiohydrolase was 3.5 units per ml, respectively. Cellobiase activity in absence of 2-deoxy-D-glucose in the control medium was 1.44 units per ml.\nThe fungus Termitomyces clypeatus IICB-411 was grown in a medium containing (w/w, %): Cellobiose 1, 2-deoxy-D-glucose 0.5, mannose 0.5, sodium succinate 0.5, KH2PO4 0.087, MgSO4, 7H2O 0.05 at pH 4.5. […]"}, "Termitomyces clypeatus [2]": {"tested_on": "Termitomyces clypeatus", "assay": "Endo-glucanase activity of culture filtrate (carboxy methylcellulose, dinitrosalicylic acid reagent)", "format": "cell-based", "settings": "for endo-glucanase: 4 days, pH 4.5", "experimental": "as §1\n(§2) The fungus Termitomyces clypeatus IICB-411 was grown in a medium containing (w/w, %): Cellobiose 1, 2-deoxy-D-glucose 0.30, sodium succinate 0.5, KH2PO4 0.087, MgSO4, 7H2O 0.05 at pH 4.5. The 250 ml conical flask containing 50 ml of medium were autoclaved for 20 minutes at 15 pounds per square inch pressure, where separately autoclaved ammonium di hydrogen orthophosphate at the concentration of 2.4% w/w was added to the medium after sterilization. The medium was cooled and was inoculated at the rate of 10% mycelia (blended) of the fungus developed earlier in flasks with glass marbles. The culture was grown in the medium for 4 days at temperatures 28°-32° C. on a rotary-shaker. The culture filtrate was freed from mycelia and the clear supernatant was used as a source of enzymes. Cellobiase activity was 90 units per ml, endo-glucanase was 4.5 units per ml, and cellobiohydrolase was 3.5 units per ml, respectively. Cellobiase activity in absence of 2-deoxy-D-glucose in the control medium was 1.44 units per ml. […]"}, "Termitomyces clypeatus [3]": {"tested_on": "Termitomyces clypeatus", "assay": "Cellobiohydrolase activity of culture filtrate (crystalline cellulose, dinitrosalicylic acid reagent)", "format": "cell-based", "settings": "for cellobiohydrolase: 4 days, pH 4.5", "experimental": "as §1, §2"}, "Dichomitus squalenes": {"tested_on": "Dichomitus squalenes", "assay": "Cellobiase activity of Dichomitus squalenes in a similar medium", "format": "cell-based", "settings": "Dichomitus squalenes in presence of 2-deoxyglucose"}, "T. clypeatus": {"tested_on": "T. clypeatus", "assay": "Growth of the fungus T. clypeatus in presence of 2-deoxy-D-glucose", "format": "cell-based, Termitomyces clypeatus", "settings": "at higher concentrations (above 0.05 to 5% w/v)", "excerpt": "The inventive step is the addition of 2-deoxy-D-glucose in the growth medium in presence of assimilable carbon and nitrogen sources and other nutrients. 2-deoxy-D-glucose is non-fermentable analogue of glucose and mannose, and is known to interfere in formation of wall polysaccharides in yeast [Reference may be made to European Journal of Biochemistry (1975), Volume 54, pages 459-467] and to increase protein secretion in Trichoderma reesei [Reference may be made to Journal of General Microbiology (1989) Volume 135, pages 301-307]; but it acts as a glycosylation inhibitor, increases synthesis and secretion of extracellular proteins in Termitomyces clypeatus, when used in the concentration range of 0.05 to 5%(w/v) and high cellobiase activity is produced in presence of cellobiose, as determined in the applicants laboratory."}, "Trichoderma reesei": {"tested_on": "Trichoderma reesei", "settings": "cited from earlier work"}, "[4]": {"settings": "Control medium + 2-deoxy-D-glucose 300 μg/ml (Example 2), Table 2"}, "[5]": {"settings": "Control medium + 2-deoxy-D-glucose 1 mg/ml + Mannose 500 μg/ml"}, "[6]": {"settings": "Control medium + 2-deoxyglucose 1 mg/ml (Example 1), Table 2"}, "[7]": {"settings": "Example 1: 2-deoxy-D-glucose 0.30 % w/w"}, "[8]": {"settings": "Example 2: 2-deoxy-D-glucose 0.5 % + mannose 0.5 % w/w"}, "[9]": {"settings": "Example 3: 2-deoxy-D-glucose 1 % w/w"}}}
{"compound": "OC[C@H]1NC[C@H](O)[C@@H](O)[C@@H]1O", "note": "[1-deoxynojirimycin]", "values": [{"measurement": "Cellobiase activity", "setting": "Termitomyces clypeatus [1]; Control + 1-deoxynojirimycin 80 μM", "result": 1.4085, "unit": "units/ml"}]}
{"compound": "O=CC[C@@H](O)[C@H](O)[C@H](O)CO", "note": "[2-deoxy-D-glucose]", "values": [{"measurement": "Cellobiase activity", "setting": "Termitomyces clypeatus [1]; Control + 2-deoxy-D-glucose 0.05 mg/ml", "result": 2.236, "unit": "units/ml"}, {"measurement": "Cellobiase activity", "setting": "Termitomyces clypeatus [1]; Control + 2-deoxy-D-glucose 1 mg/ml", "result": 50.097, "unit": "units/ml"}, {"measurement": "Cellobiase activity", "setting": "Termitomyces clypeatus [1]; Control + 2-deoxy-D-glucose 5 mg/ml", "result": 0.081, "unit": "units/ml"}, {"measurement": "Cellobiase activity", "setting": "Termitomyces clypeatus [1]; [4]", "result": 90.020, "unit": "units/ml"}, {"measurement": "Cellobiase activity", "setting": "Termitomyces clypeatus [1]; [5]", "result": 140.60, "unit": "units/ml"}, {"measurement": "Cellobiase activity", "setting": "Termitomyces clypeatus [1]; [6]", "result": 50.097, "unit": "units/ml"}, {"measurement": "Cellobiase activity", "setting": "Termitomyces clypeatus [1]; Example 1: 2-deoxy-D-glucose 0.30 % w/w, 4 days, pH 4.5", "result": 90, "unit": "units per ml"}, {"measurement": "Cellobiase activity", "setting": "Termitomyces clypeatus [1]; Example 2: 2-deoxy-D-glucose 0.5 % + mannose 0.5 % w/w, 4 days, pH 4.5", "result": 140, "unit": "units per ml"}, {"measurement": "Cellobiase activity", "setting": "Termitomyces clypeatus [1]; Example 3: 2-deoxy-D-glucose 1 % w/w, 4 days, pH 4.5", "result": 50, "unit": "units per ml"}, {"measurement": "Maximum cellobiase activity", "setting": "Termitomyces clypeatus [1]; Example-1", "result": 90.0, "unit": "U/ml"}, {"measurement": "Maximum cellobiase activity", "setting": "Termitomyces clypeatus [1]; Example-2", "result": 140.0, "unit": "U/ml"}, {"measurement": "Maximum cellobiase activity", "setting": "Termitomyces clypeatus [1]; Example-3", "result": 50.0, "unit": "U/ml"}, {"measurement": "enhanced production and secretion of enzyme", "setting": "Termitomyces clypeatus [1]; at lower concentrations", "result": "the effect is not observed"}, {"measurement": "Endo-glucanase activity", "setting": "Termitomyces clypeatus [2]; [4]", "result": 4.637, "unit": "units/ml"}, {"measurement": "Endo-glucanase activity", "setting": "Termitomyces clypeatus [2]; [5]", "result": 1.086, "unit": "units/ml"}, {"measurement": "Endo-glucanase activity", "setting": "Termitomyces clypeatus [2]; [6]", "result": 4.112, "unit": "units/ml"}, {"measurement": "endo-glucanase", "setting": "Termitomyces clypeatus [2]; [7]", "result": 4.5, "unit": "units per ml"}, {"measurement": "endo-glucanase", "setting": "Termitomyces clypeatus [2]; [8]", "result": 6, "unit": "units per ml"}, {"measurement": "endo-glucanase", "setting": "Termitomyces clypeatus [2]; [9]", "result": 4, "unit": "units per ml"}, {"measurement": "Cellobiohydrolase activity", "setting": "Termitomyces clypeatus [3]; [4]", "result": 3.600, "unit": "units/ml"}, {"measurement": "Cellobiohydrolase activity", "setting": "Termitomyces clypeatus [3]; [5]", "result": 4.873, "unit": "units/ml"}, {"measurement": "Cellobiohydrolase activity", "setting": "Termitomyces clypeatus [3]; [6]", "result": 3.546, "unit": "units/ml"}, {"measurement": "cellobiohydrolase", "setting": "Termitomyces clypeatus [3]; [7]", "result": 3.5, "unit": "units per ml"}, {"measurement": "cellobiohydrolase", "setting": "Termitomyces clypeatus [3]; [8]", "result": 3.5, "unit": "units per ml"}, {"measurement": "cellobiohydrolase", "setting": "Termitomyces clypeatus [3]; [9]", "result": 3.5, "unit": "units per ml"}, {"measurement": "Maximum cellobiase activity", "setting": "Dichomitus squalenes", "result": "0.05^C U/ml"}, {"measurement": "growth of the fungus", "setting": "T. clypeatus", "result": "inhibit growth"}, {"measurement": "biosynthesis of extracellular as well as intracellular protein", "setting": "Trichoderma reesei; 2-deoxy-D-glucose 0-150 μg/ml", "result": "inhibited"}]}
{"compound": "O=C1O[C@H](CO)[C@@H](O)[C@H](O)[C@H]1O", "note": "[glucono-lactone, D-glucono-lactone]", "values": [{"measurement": "Cellobiase activity", "setting": "Termitomyces clypeatus [1]; Control + glucono-lactone 2 mg/ml", "result": 6.1820, "unit": "units/ml"}]}
{"compound": "Tunicamycin", "values": [{"measurement": "Cellobiase activity", "setting": "Termitomyces clypeatus [1]; Control + Tunicamycin 10 μg/ml", "result": 1.2075, "unit": "units/ml"}, {"measurement": "effect on secretion of proteins", "setting": "Trichoderma reesei; Tunicamycin 0-50 μg/ml", "result": "no effect"}]}
